Laboratory results: ChEMBL document CHEMBL1201862, “PubChem BioAssay data set” (2004)
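These data come from cells grown in 96-well plates and exposed to compound for 48 hours at five concentrations. GI50 = concentration required for 50% inhibition of growth.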 The source made the active and inactive calls. Cut-off read from the data, not from the text of the source: active = GI50 up to about 1.1 µM and inactive = higher.

What was measured:
Experiment in all cases: NCI anticancer screen, dose series, 48 h
[1] = system: PC-3
[2] = system: T47D
[3] = system: Hs-578T
[4] = system: HOP-92
[5] = system: M14
[6] = system: SK-OV-3
[7] = system: MOLT-4
[8] = system: RPMI-8226
[9] = system: NCI/ADR-RES
[10] = system: COLO 205
[11] = system: UACC-62
[12] = system: ACHN
[13] = system: A549
[14] = system: SK-MEL-2
[15] = system: CAKI-1
[16] = system: OVCAR-5
[17] = system: SK-MEL-28
[18] = system: SW-620
[19] = system: MCF7
[20] = system: OVCAR-3

Structure (SMILES)	GI50 [1]	GI50 [2]	GI50 [3]	GI50 [4]	GI50 [5]	GI50 [6]	GI50 [7]	GI50 [8]	GI50 [9]	GI50 [10]	GI50 [11]	GI50 [12]	GI50 [13]	GI50 [14]	GI50 [15]	GI50 [16]	GI50 [17]	GI50 [18]	GI50 [19]	GI50 [20]
C[C@H]1[C@H](C)N(Cc2ccccc2)P(=O)(C(O)/C=C/c2ccccc2)N1Cc1ccccc1 (some centres undefined)	5.37 µM (inactive)	6.27 µM (inactive)	4.79 µM (inactive)	7.18 µM (inactive)	4.62 µM (inactive)	9.68 µM (inactive)	8.73 µM (inactive)	6.22 µM (inactive)	10.4 µM (inactive)	6.64 µM (inactive)	4.18 µM (inactive)	8.47 µM (inactive)	8.07 µM (inactive)	4.7 µM (inactive)	8.28 µM (inactive)	6.61 µM (inactive)	8.51 µM (inactive)	9.25 µM (inactive)	8.3 µM (inactive)	–
CC1OC(O[C@@H]2OC=C(C=O)[C@@]3(O)CC[C@H](C)[C@@H]23)C(O)C(O)C1O (some centres undefined)	> 100 µM (inactive)	> 100 µM (inactive)	> 100 µM (inactive)	> 100 µM (inactive)	> 100 µM (inactive)	> 100 µM (inactive)	> 100 µM (inactive)	> 100 µM (inactive)	> 100 µM (inactive)	> 100 µM (inactive)	> 100 µM (inactive)	> 100 µM (inactive)	> 100 µM (inactive)	> 100 µM (inactive)	> 100 µM (inactive)	> 100 µM (inactive)	> 100 µM (inactive)	> 100 µM (inactive)	> 100 µM (inactive)	> 100 µM (inactive)
[O-][n+]1ccc(NO)c2ccccc21	1.51 µM (inactive)	1.67 µM (inactive)	2.09 µM (inactive)	2.07 µM (inactive)	1.93 µM (inactive)	0.518 µM (active)	0.6 µM (active)	0.297 µM (active)	1.54 µM (inactive)	1.41 µM (inactive)	1.22 µM (inactive)	0.796 µM (active)	1.6 µM (inactive)	1.77 µM (inactive)	1.16 µM (inactive)	3.73 µM (inactive)	1.3 µM (inactive)	1.56 µM (inactive)	0.883 µM (active)	2.3 µM (inactive)
C=C(C)[C@@]1(O)O[C@H]2C[C@@]3(C)OC(=CC3=O)/C(C)=C\[C@@H]3OC(=O)[C@@]1(C)[C@H]32	16.3 µM (inactive)	21.3 µM (inactive)	45.8 µM (inactive)	20.4 µM (inactive)	14.9 µM (inactive)	47.4 µM (inactive)	7.8 µM (inactive)	7.94 µM (inactive)	13.1 µM (inactive)	16 µM (inactive)	14.1 µM (inactive)	18.2 µM (inactive)	29.2 µM (inactive)	14 µM (inactive)	19.6 µM (inactive)	14 µM (inactive)	12.6 µM (inactive)	4.9 µM (inactive)	11.6 µM (inactive)	15.5 µM (inactive)
COc1ccc(CCCCNCc2cccc(CNCCCCc3ccc(OC)cc3)c2)cc1	1.79 µM (inactive)	2.06 µM (inactive)	1.69 µM (inactive)	1.44 µM (inactive)	1.69 µM (inactive)	2.08 µM (inactive)	2.18 µM (inactive)	2.67 µM (inactive)	1.8 µM (inactive)	2.18 µM (inactive)	1.85 µM (inactive)	1.83 µM (inactive)	2.15 µM (inactive)	1.91 µM (inactive)	1.8 µM (inactive)	2.09 µM (inactive)	1.84 µM (inactive)	2.23 µM (inactive)	1.54 µM (inactive)	1.88 µM (inactive)
COc1cc2cc(C(=O)N3CC(CCl)c4ccc([N+](C)(C)Cc5ccccc5[N+](=O)[O-])cc43)[nH]c2c(OC)c1OC (centres undefined)	1.68 µM (inactive)	2.31 µM (inactive)	2.4 µM (inactive)	2.21 µM (inactive)	1.67 µM (inactive)	4.51 µM (inactive)	0.63 µM (active)	1.3 µM (inactive)	1.76 µM (inactive)	2 µM (inactive)	1.01 µM (active)	0.348 µM (active)	0.314 µM (active)	1.89 µM (inactive)	1.01 µM (active)	2.66 µM (inactive)	2.46 µM (inactive)	2.01 µM (inactive)	0.621 µM (active)	2.94 µM (inactive)
CC(=O)OCC1OC(n2ncc(=O)[nH]c2=O)C(OC(C)=O)C1OC(C)=O (centres undefined)	68.9 µM (inactive)	> 100 µM (inactive)	19.1 µM (inactive)	> 100 µM (inactive)	73.5 µM (inactive)	61.2 µM (inactive)	1.32 µM (inactive)	> 100 µM (inactive)	61.7 µM (inactive)	11.3 µM (inactive)	23.2 µM (inactive)	4.9 µM (inactive)	8.97 µM (inactive)	–	9.4 µM (inactive)	> 100 µM (inactive)	> 100 µM (inactive)	1.4 µM (inactive)	15.6 µM (inactive)	65.9 µM (inactive)
O=C1CSC(c2ccc(Cl)cc2)N1c1ccc(-c2ccc(-n3c(-c4ccccc4)nc4ccccc4c3=O)cc2)cc1 (centres undefined)	26.1 µM (inactive)	13.8 µM (inactive)	28.8 µM (inactive)	11.4 µM (inactive)	43.6 µM (inactive)	31.1 µM (inactive)	17.7 µM (inactive)	55.7 µM (inactive)	20 µM (inactive)	27.8 µM (inactive)	20.2 µM (inactive)	58.6 µM (inactive)	37.5 µM (inactive)	51.5 µM (inactive)	29.4 µM (inactive)	> 10 µM (inactive)	41.1 µM (inactive)	11.8 µM (inactive)	30.7 µM (inactive)	> 100 µM (inactive)
NCCSCCc1ccccc1	> 100 µM (inactive)	55.1 µM (inactive)	> 100 µM (inactive)	72.1 µM (inactive)	> 100 µM (inactive)	> 100 µM (inactive)	–	44 µM (inactive)	> 100 µM (inactive)	> 100 µM (inactive)	> 100 µM (inactive)	> 100 µM (inactive)	> 100 µM (inactive)	> 100 µM (inactive)	> 100 µM (inactive)	> 100 µM (inactive)	> 100 µM (inactive)	> 100 µM (inactive)	> 100 µM (inactive)	68.2 µM (inactive)
O=[N+]([O-])c1cc(Cc2cc([N+](=O)[O-])c3cccnc3c2O)c(O)c2ncccc12	4.41 µM (inactive)	4.48 µM (inactive)	9.51 µM (inactive)	5.96 µM (inactive)	6.07 µM (inactive)	15.7 µM (inactive)	2.12 µM (inactive)	4.57 µM (inactive)	3.6 µM (inactive)	19.7 µM (inactive)	9.48 µM (inactive)	5.6 µM (inactive)	6.56 µM (inactive)	11.1 µM (inactive)	8.77 µM (inactive)	24.8 µM (inactive)	13.6 µM (inactive)	5.94 µM (inactive)	4.4 µM (inactive)	2.38 µM (inactive)
CCCCCCNCCCNc1c2ccccc2nc2cccc([N+](=O)[O-])c12	0.0163 µM (active)	0.0369 µM (active)	0.0448 µM (active)	0.0211 µM (active)	0.0119 µM (active)	0.051 µM (active)	0.00658 µM (active)	0.00247 µM (active)	0.33 µM (active)	0.00347 µM (active)	0.0279 µM (active)	0.0132 µM (active)	0.00409 µM (active)	0.0181 µM (active)	0.0548 µM (active)	0.0315 µM (active)	0.158 µM (active)	0.00481 µM (active)	0.00376 µM (active)	0.0171 µM (active)
COC(=O)C(/C(=N/N)C(=O)Nc1ccc(C)c(C)c1)c1nc2ccc(Cl)cc2nc1O (centres undefined)	> 100 µM (inactive)	> 100 µM (inactive)	> 100 µM (inactive)	> 100 µM (inactive)	> 100 µM (inactive)	> 100 µM (inactive)	> 100 µM (inactive)	> 100 µM (inactive)	> 100 µM (inactive)	–	> 100 µM (inactive)	40.3 µM (inactive)	> 100 µM (inactive)	> 100 µM (inactive)	> 100 µM (inactive)	> 100 µM (inactive)	> 100 µM (inactive)	> 100 µM (inactive)	> 100 µM (inactive)	> 100 µM (inactive)
CCOC(=O)CCCN	> 100 µM (inactive)	> 100 µM (inactive)	> 100 µM (inactive)	> 100 µM (inactive)	> 100 µM (inactive)	> 100 µM (inactive)	> 100 µM (inactive)	> 100 µM (inactive)	> 100 µM (inactive)	> 100 µM (inactive)	–	> 100 µM (inactive)	> 100 µM (inactive)	> 100 µM (inactive)	> 100 µM (inactive)	> 100 µM (inactive)	> 100 µM (inactive)	> 100 µM (inactive)	> 100 µM (inactive)	> 100 µM (inactive)
CC(=O)N1C(Nc2ccccc2)CCN1c1ccccc1 (centres undefined)	4.01 µM (inactive)	> 10 µM (inactive)	> 10 µM (inactive)	> 10 µM (inactive)	> 10 µM (inactive)	> 10 µM (inactive)	9.77 µM (inactive)	> 10 µM (inactive)	9.89 µM (inactive)	> 10 µM (inactive)	–	4.22 µM (inactive)	> 10 µM (inactive)	> 10 µM (inactive)	8.73 µM (inactive)	> 10 µM (inactive)	> 10 µM (inactive)	5.64 µM (inactive)	> 10 µM (inactive)	> 10 µM (inactive)
